Results reported in publication PMC6214618, “Multimodal Ligand Binding Studies of Human and Mouse G-Coupled Taste Receptors to Correlate Their Species-Specific Sweetness Tasting Properties” (Molecules : A Journal of Synthetic Chemistry and Natural …, 2018).
Peptide text beside a SMILES is read from it.

Columns and labels:
human T1R2 ATD [1] = molecular target: T1, human T1R2 ATD (Homo sapiens, UniProt Q8TE23); assay: Circular dichroism (CD) spectroscopy of ligand binding, human T1R2 ATD; details: for Kd: measured by CD, 25 °C, 4.5 μM ATD protein, nonlinear regression at fixed wavelength; for change in CD profile / ellipticity upon ligand addition: His-hT1R2 ATD, 209 and 219 nm
T1 construct: or Ser25-Thr489 in the 8xHis-Tag; made in house
T1 sequence (Q8TE23 25-489): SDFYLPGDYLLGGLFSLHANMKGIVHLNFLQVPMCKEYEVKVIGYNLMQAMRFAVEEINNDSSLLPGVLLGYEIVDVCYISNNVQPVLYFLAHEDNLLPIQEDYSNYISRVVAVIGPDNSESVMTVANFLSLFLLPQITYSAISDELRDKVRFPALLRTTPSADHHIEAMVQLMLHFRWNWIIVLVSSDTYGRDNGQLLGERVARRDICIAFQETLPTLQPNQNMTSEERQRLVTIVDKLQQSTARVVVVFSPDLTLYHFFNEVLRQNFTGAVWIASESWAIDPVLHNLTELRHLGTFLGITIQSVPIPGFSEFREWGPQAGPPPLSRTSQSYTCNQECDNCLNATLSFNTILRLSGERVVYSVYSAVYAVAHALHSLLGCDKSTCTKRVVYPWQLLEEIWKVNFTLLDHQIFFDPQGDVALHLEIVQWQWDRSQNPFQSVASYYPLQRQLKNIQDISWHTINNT
Experimental: CD spectra were recorded at 25 °C on an Model 202SF circular dichroism spectrometer (Aviv, Lakewood, NY, USA) equipped with a Peltier temperature control. Samples were added to a 0.01 cm path length quartz cuvette with a concentration of the ATD (from human and mouse) of about 0.3 mg/mL (4.5 μM) in 10 mM Tris-HCl, 150 mM NaCl, 10% glycerol, pH 7.4. Data was collected every 1 nm with an averaging time of 5 s. The spectral bandwidth was 1 nm. Spectra were corrected for buffer and ligands contributions and converted to mean ellipticity in deg cm^2·dmol^−1. The content of α-helix was computed using the deconvolution program from Chen et al.. […] The KD was calculated by analyzing CD data at a fixed wavelength versus ligand concentration using a nonlinear regression method (see Table 1). MSG was used as a negative control.

mouse T1R2 ATD [2] = molecular target: T2, mouse T1R2 ATD (Mus musculus, UniProt Q925I4); assay: Circular dichroism (CD) spectroscopy of ligand binding, mouse T1R2 ATD; details: mouse His-T1R2 ATD, saturating concentrations (neotame up to 500 μM)
T2 construct: The mouse 8xHis-Tev-ATD-mT1R2 construct ranged from residues Gly2-Pro466; made in house
T2 sequence (Q925I4 2-465 limits assumed): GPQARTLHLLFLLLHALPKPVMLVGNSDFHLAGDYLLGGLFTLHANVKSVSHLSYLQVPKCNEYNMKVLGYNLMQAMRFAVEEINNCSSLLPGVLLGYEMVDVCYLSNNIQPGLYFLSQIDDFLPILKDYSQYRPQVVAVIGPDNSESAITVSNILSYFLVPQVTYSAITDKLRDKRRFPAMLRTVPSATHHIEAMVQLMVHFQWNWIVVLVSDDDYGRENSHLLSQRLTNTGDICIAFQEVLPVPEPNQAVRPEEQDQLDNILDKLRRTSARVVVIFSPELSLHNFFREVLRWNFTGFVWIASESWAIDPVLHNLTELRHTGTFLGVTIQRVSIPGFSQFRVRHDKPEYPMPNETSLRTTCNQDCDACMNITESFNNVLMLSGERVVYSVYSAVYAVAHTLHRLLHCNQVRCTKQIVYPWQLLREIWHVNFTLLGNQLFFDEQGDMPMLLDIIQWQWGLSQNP
Experimental: Data was collected every 1 nm with an averaging time of 5 s. The spectral bandwidth was 1 nm. Spectra were corrected for buffer and ligands contributions and converted to mean ellipticity in deg cm^2·dmol^−1. The content of α-helix was computed using the deconvolution program from Chen et al.. […] The KD was calculated by analyzing CD data at a fixed wavelength versus ligand concentration using a nonlinear regression method (see Table 1). MSG was used as a negative control.

mouse T1R2 ATD [3] = molecular target: T2, mouse T1R2 ATD; assay: Intrinsic fluorescence spectroscopy, mouse T1R2 ATD; format: binding; details: excitation 280 nm
Experimental: (§1) Samples were prepared in the same way as for the CD experiments. Experiments were performed at 25 °C on Carey Eclipse instrument (Agilent, Santa Clara, CA, USA). Spectra were subtracted from the buffer ± ligand backgrounds for presentation. The curves at 340 nm were the best fits of the data obtained by a regression method using Microsoft Excel software (Microsoft, Redmont, WA, USA).

human T1R2 ATD [4] = molecular target: T3, human T1R2 ATD (Homo sapiens, UniProt Q8TE23); assay: Saturation transfer difference NMR (STD-NMR) binding assay; details: neotame 3–10 mM at 27 °C; MSG at 7–37 °C
T3 construct: The human constructs ranged from residues Asn24-Met494 for human (ATD-hT1R2) in the SUMO fusion; His (N); TEV cleavage site (N); made in house
T3 sequence (Q8TE23 24-494): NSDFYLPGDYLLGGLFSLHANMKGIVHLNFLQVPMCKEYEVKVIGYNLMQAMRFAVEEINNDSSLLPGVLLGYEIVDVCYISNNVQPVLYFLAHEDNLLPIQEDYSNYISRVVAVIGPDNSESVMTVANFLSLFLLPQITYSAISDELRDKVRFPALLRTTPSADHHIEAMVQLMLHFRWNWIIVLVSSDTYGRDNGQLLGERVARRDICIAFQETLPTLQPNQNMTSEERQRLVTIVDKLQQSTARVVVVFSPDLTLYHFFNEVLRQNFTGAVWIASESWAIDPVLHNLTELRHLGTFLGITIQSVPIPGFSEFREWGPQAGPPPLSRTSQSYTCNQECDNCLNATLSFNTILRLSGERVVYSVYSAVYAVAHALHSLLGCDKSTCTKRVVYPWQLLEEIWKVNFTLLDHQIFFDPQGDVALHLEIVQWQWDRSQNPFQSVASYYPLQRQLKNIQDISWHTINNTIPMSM
Experimental: The ligand binding activity of ATD-T1R2 for all ligands was confirmed with a NMR-STD binding assay as previously described. Aliquots of the pure labeled SUMO-T1R2 protein were incubated with desired titrating ligands at 0.5–20 fold molar excess and concentrated to a final concentration of ~0.05 mM in 10 mM phosphate buffer (pH 7.4) containing 150 mM NaCl, 2.7 mM KCl, 5 mM DTT, 5x protease inhibitor (Roche) and 0.05% NaN3. Monosodium glutamate (MSG, non-sweet molecule) was used as a negative control. NMR data were collected on a VNMRS spectrometer (Varian, Palo Alto, CA, USA) operating at 800 MHz and equipped with a cryogenic probe. STD-NMR data collection and analysis was carried out as previously described.

human T1R2 ATD [5] = molecular target: T1, human T1R2 ATD; assay: Intrinsic fluorescence spectroscopy, human T1R2 ATD; format: binding; details: excitation 280 nm; for change in intrinsic fluorescence intensity: human T1R2 ATD, ligand 0–64 μM
Experimental: as §1

Structure (SMILES)	Kd (human T1R2 ATD [1])	EC50 (human T1R2 ATD [5]; h-T1R2 ATD, signal at 336 nm, read-out: ligand concentration at half of the maximal value of fluorescence change)	EC50 (mouse T1R2 ATD [3]; signal at 336 nm, read-out: half-maximal value of fluorescence intensity decrease)	change in ellipticity upon ligand addition (mouse T1R2 ATD [2])	change in intrinsic fluorescence intensity (mouse T1R2 ATD [3])	STD signal / binding (human T1R2 ATD [4])	change in CD profile / ellipticity upon ligand addition (human T1R2 ATD [1])	change in intrinsic fluorescence intensity (human T1R2 ATD [5])
COC(=O)[C@H](Cc1ccccc1)NC(=O)[C@@H](N)CC(=O)O [Aspartame] (HELM PEPTIDE1{D.F.[CO[*:1]]}$$$$V2.0)	> 300 µM							
N[C@H](Cc1c[nH]c2ccccc12)C(=O)O [D-Tryptophan]	500 µM							
N[C@@H](CCC(=O)O)C(=O)[O-].[Na+] [MSG, monosodium glutamate]				no change in ellipticity	did not change the intrinsic fluorescence intensity	no STD signal	no change	no change in intrinsic fluorescence intensity

Second part, led by results:

Kd (human T1R2 ATD [1])	EC50 (human T1R2 ATD [5]; h-T1R2 ATD, signal at 336 nm, read-out: ligand concentration at half of the maximal value of fluorescence change)	EC50 (mouse T1R2 ATD [3]; signal at 336 nm, read-out: half-maximal value of fluorescence intensity decrease)	Structure (SMILES)	change in ellipticity upon ligand addition (mouse T1R2 ATD [2])	change in intrinsic fluorescence intensity (mouse T1R2 ATD [3])	STD signal / binding (human T1R2 ATD [4])	change in CD profile / ellipticity upon ligand addition (human T1R2 ATD [1])	change in intrinsic fluorescence intensity (human T1R2 ATD [5])
100 µM			CC1=CC(=O)NS(=O)(=O)O1 [Acetasulfame]					
40 µM	5 µM		OC[C@H]1O[C@H](O[C@]2(CCl)O[C@H](CCl)[C@@H](O)[C@@H]2O)[C@H](O)[C@@H](O)[C@H]1Cl [Sucralose]					decreasing fluorescence intensity
40 µM		8 µM	OC[C@H]1O[C@@](CO)(O[C@H]2O[C@H](CO)[C@@H](O)[C@H](O)[C@H]2O)[C@@H](O)[C@@H]1O [Sucrose]	small decrease in ellipticity	decrease in the fluorescence intensity		small decrease in ellipticity	did not change the fluorescence intensity
